The values below come from patent US20230279053A1 (priority 2020, published 2023).

One test has as its target T1, Human GLP-1R (Homo sapiens, UniProt P43220).
T1 construct: expressed in transfected cells; host or cells: HEK cells, BacMam transduction
The test can be described thus: Functional antagonism of human GLP1 receptors, cAMP accumulation assay. It counts as cell-based. To be noted: HEK cells infected with GLP-1R Bacmam; stimulated with EC80 of GLP-1(7-36) amide; HiRange cAMP kit; IC50 corrected by Cheng-Prusoff adaptation. As for the experimental part: The method followed a two-step protocol provided in the kit. In brief, HEK cells infected with 1% v/v GLP-1R Bacmam for 24 h were harvested using cell dissociation solution (Gibco), centrifuged and resuspended in the assay buffer (HBSS (Lonza) supplemented with 0.5 mM IBMX (Tocris)). DMSO stock of test compounds were serially diluted in the assay buffer and added to 96-well half area white plates (Costar). Final DMSO concentration in the assay was 0.3%. 20K cells per well were added to plates followed by 30 min incubation (humidified air (5% CO2), 37° C.). […] Intracellular accumulation of cAMP was stopped by addition of the HTRF detection reagents in lysis buffer, provided in the kit. Following 1-hour incubation at RT, plates were read on Pherastar FS (BMG Labtech, Inc.) Dotmatics Studies software was used for fitting data to a four-parameter concentration response curve. Calculated IC50 values were corrected for the agonist concentration using an adaptation of the Cheng-Prusoff equation to generate functional pKb values: […]

A further test has as its target T2, Mouse GLP-1R (Mus musculus, UniProt O35659).
T2 construct: expressed in transfected cells
T2 sequence (O35659 22-463): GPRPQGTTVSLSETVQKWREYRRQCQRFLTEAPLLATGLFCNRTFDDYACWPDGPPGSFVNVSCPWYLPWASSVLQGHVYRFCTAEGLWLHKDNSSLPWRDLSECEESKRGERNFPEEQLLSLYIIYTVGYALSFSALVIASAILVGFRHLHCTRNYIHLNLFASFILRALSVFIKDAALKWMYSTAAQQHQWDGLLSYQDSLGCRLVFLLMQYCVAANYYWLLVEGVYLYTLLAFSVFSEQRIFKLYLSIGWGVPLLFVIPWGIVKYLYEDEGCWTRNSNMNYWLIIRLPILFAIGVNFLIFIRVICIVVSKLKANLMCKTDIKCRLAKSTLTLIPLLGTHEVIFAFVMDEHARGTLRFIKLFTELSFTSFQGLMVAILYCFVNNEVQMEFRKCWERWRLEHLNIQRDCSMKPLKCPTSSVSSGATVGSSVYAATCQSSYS
The test can be described thus: Functional antagonism of mouse GLP1 receptors, cAMP accumulation assay. In kind it is cell-based. To be noted: CHO-K1 cells stably expressing mouse GLP-1R; stimulated with EC80 of Exendin-4; HitHunter cAMP assay; IC50 corrected by Cheng-Prusoff adaptation. As for the experimental part: Antagonist inhibition of cAMP production upon stimulation of GLP-1R with agonist ligand was assessed using HitHunter cAMP assay (DiscoverX). The method followed antagonist procedure steps provided in the kit. In brief, CHO-K1 cells stably expressing mouse GLP-1R were thawed and plated at 10K cells per well in CP05 reagent in the total volume of 20 μl into white walled, 384-well plates and incubated overnight at 37° C. in Cytomat. On the day of the assay, the media was replaced with 15 μl of HBSS/10 mM HEPES. DMSO stock of test compounds were serially diluted in DMSO and then further diluted in the HBSS/10 mM HEPES, 5 μl of each concentration were added to the plate followed by 30 min incubation at 37° C. Final DMSO concentration in the assay was 1%. Cells were stimulated for further 30 min at 37° C. by addition of an equivalent to EC80 concentration of Exendin-4. Intracellular accumulation of cAMP was stopped by addition of the HitHunter detection reagents in lysis buffer, provided in the kit. Following 1-hour incubation at RT in the dark, plates were read on Envision (Perkin Elmer). Dotmatics Studies software was used for fitting data to a four-parameter concentration response curve. Calculated IC50 values were corrected for the agonist concentration using an adaptation of the Cheng-Prusoff equation to generate functional pKb values: […]

T1 sequence (P43220 24-463): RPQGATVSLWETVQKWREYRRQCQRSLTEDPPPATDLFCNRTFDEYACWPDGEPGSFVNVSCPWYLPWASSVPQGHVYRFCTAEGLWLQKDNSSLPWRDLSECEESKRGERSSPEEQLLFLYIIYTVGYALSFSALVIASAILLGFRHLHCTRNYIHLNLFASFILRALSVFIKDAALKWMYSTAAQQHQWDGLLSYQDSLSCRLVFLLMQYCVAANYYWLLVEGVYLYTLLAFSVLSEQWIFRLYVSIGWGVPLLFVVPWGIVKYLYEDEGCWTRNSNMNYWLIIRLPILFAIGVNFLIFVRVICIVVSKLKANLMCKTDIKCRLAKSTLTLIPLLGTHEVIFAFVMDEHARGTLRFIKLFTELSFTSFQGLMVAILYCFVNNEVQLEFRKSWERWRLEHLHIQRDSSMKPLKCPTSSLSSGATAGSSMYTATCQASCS

Regarding exendin(9-39)amide [Ex 9-39], at Human GLP-1R, the “Human GLP-1R antagonist cAMP fpKb” value is 7.8. Moreover, on Mouse GLP-1R, the “Mouse GLP-1R antagonist cAMP fpKb” value was determined as 7.2.
